These results are taken from ChEMBL document CHEMBL3046698, “Synergistic application of target structure-based alignment and 3D-QSAR study of protein tyrosine phosphatase 1B (PTP1B) inhibitors” (Med Chem Res, 2011).

Molecules are shown by their SMILES. Where “and” joins values, the source holds several entries; their conditions need not be identical. Equal entries are not always repeated.

The target in this test is T1, Tyrosine-protein phosphatase non-receptor type 1 (Homo sapiens, UniProt P18031).
T1 sequence (P18031 whole entry): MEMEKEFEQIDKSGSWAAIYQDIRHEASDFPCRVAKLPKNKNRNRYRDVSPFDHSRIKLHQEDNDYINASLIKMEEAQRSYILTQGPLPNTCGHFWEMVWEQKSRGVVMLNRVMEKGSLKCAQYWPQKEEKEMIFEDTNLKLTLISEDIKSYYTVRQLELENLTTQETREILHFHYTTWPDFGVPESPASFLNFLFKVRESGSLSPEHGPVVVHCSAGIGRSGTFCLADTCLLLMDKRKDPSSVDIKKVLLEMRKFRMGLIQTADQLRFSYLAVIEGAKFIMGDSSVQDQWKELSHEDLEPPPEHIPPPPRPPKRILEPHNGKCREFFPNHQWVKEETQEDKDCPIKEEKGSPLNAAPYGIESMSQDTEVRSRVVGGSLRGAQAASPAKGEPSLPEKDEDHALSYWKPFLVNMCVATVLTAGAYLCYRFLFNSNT
Description: Inhibition of PTP1B (unknown origin)
On to `CC(=O)C(=O)N(c1ccc2ccccc2c1)c1ccccc1C(=O)O`, for which the Ki (in general, the dissociation constant of the complex between target and ligand, obtained from inhibition or displacement) was 38.9 µM and 39 µM.
The result for `CC(=O)C(=O)N(c1ccccc1CCO)c1ccccc1C(=O)O` reads 17 µM; that for `CCc1cc(C[C@H](NC(C)=O)C(=O)NCCCCC(=O)NC(Cc2ccccc2)C(N)=O)ccc1N(C(=O)C(=O)O)c1ccccc1C(=O)O` (stereo partly specified), 1.29 µM and 1.3 µM; that for `CCc1cc(C[C@H](NC(C)=O)C(=O)NCCCCC(=O)NCCc2ccccc2)ccc1N(C(=O)C(=O)O)c1ccccc1C(=O)O`, 3.39 µM and 3.4 µM.
With `CC(=O)C(=O)N(c1ccccc1C(=O)O)c1ccccc1N1CCCCC1`, the inhibition constant Ki was 14.1 µM and 14 µM.
With `CC(=O)C(=O)N(c1ccccc1C(=O)O)c1ccccc1C(C)C`, the Ki is 35.5 µM and 35 µM.
With `CC(=O)C(=O)N(c1ccccc1C(=O)O)c1cccc(C)c1C` the figure was 93.3 µM and 93 µM.
With `CCc1cc(C[C@H](NC(C)=O)C(=O)NCc2ccc(OC)cc2)ccc1N(C(=O)C(=O)O)c1ccccc1C(=O)O` the figure was 4.79 µM and 4.7 µM.
Turning to `CCC(CC(=O)O)N(C(=O)C(=O)O)c1ccc(CC(NC(=O)OC(C)(C)C)C(=O)NCCCCOc2cccc(O)c2C(=O)OC)cc1` (stereo unspecified), the inhibition constant (Ki) was 1.82 µM and 1.8 µM.
The result for `COC(=O)c1c(O)cccc1OCCCCNC(=O)[C@H](Cc1ccc(OC(C(N)=O)C(=O)O)cc1)NC(=O)OC(C)(C)C` (stereo partly specified) reads 13.8 µM; that for `COC(=O)c1c(O)cccc1OCCCCNC(=O)[C@H](Cc1ccc(OC(C)C(=O)O)c(C(=O)O)c1)NC(=O)[C@H](Cc1ccccc1)NC(=O)OC(C)(C)C` (stereo partly specified), 0.162 µM.
The result for `CC(=O)C(=O)N(c1ccccc1C(=O)O)c1cccc2ccccc12` reads 24 µM.
Turning to `CCc1cc(C[C@H](NC(C)=O)C(=O)N[C@H](CCSC)C(=O)O)ccc1N(C(=O)C(=O)O)c1ccccc1C(=O)O`, the inhibitory constant (Ki) was 1.74 µM and 1.7 µM.
With `COC(=O)c1c(O)cccc1OCCCCNC(=O)C(Cc1ccc(N(CC(C(=O)O)c2ccccc2)C(=O)C(=O)O)cc1)NC(=O)OC(C)(C)C` (stereo unspecified) the figure was 15.1 µM and 15.2 µM; with `CC(=O)C(=O)N(c1ccccc1/C=C/C(N)=O)c1ccccc1C(=O)O`, 11 µM; with `CCc1cc(C[C@H](NC(C)=O)C(=O)NCc2ccc(Cl)cc2)ccc1N(C(=O)C(=O)O)c1ccccc1C(=O)O`, 1.2 µM.
With `CC(=O)C(=O)N(c1ccccc1Cc1ccccc1)c1ccccc1C(=O)O`, the Ki was 24 µM.
The result for `CC(=O)C(=O)N(c1ccccc1C(=O)O)c1cccc2c1CCCC2` reads 74.1 µM and 74 µM; that for `COC(=O)c1c(O)cccc1OCCCCNC(=O)[C@H](Cc1ccc(OC(C(=O)O)C(=O)NC2CC2)cc1)NC(=O)OC(C)(C)C` (stereo partly specified), 8.51 µM; that for `CCc1ccccc1N(C(=O)C(C)=O)c1ccccc1C(=O)O`, 60.3 µM and 60 µM.
The result for `CC(=O)C(=O)N(c1ccccc1C(=O)O)c1cccc2ccc(O)cc12` reads 17 µM.
